Laboratory results as given in patent US7208517B1, “Endothelin antagonists” (Abbott Labortories, priority 1994, dated 2007).

Biological target: T1, ETA Receptor (Rattus norvegicus, UniProt P26684)
T1 construct: endogenous in cells; host or cells: MMQ rat pituitary cells (membranes)
T1 sequence (P26684 21-426): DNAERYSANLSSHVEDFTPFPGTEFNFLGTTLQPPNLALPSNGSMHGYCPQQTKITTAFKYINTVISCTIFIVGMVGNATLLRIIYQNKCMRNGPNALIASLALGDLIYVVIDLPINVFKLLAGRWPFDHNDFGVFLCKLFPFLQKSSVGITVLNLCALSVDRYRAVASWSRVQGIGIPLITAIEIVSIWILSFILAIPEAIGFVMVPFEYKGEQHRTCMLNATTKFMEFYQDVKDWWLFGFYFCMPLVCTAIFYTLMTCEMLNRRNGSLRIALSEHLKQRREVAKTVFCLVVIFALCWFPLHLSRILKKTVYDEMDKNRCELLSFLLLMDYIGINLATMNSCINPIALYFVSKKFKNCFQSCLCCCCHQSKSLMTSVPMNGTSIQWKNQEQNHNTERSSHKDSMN
Test: [125I]ET-1 binding to membranes from MMQ cells (ETA receptor binding assay, Table 4)
Conditions: test compound at 1 μM; 0.1 nM [125I]ET-1, MMQ cell membranes, 4 hours at 25° C.

| SMILES | % Inhibition of ETA at 1 μM |
| --- | --- |
| CCCCN(CCCC)C(=O)CN1CC(c2ccc3c(c2)CCO3)C(C(=O)O)C1c1ccc(C(C)(C)C)cc1 (stereo not drawn) [Example 159, trans,trans-1-(N,N-Di(n-butyl)aminocarbonylmethyl)-2-(4-t-butylphenyl)-4-(5-benzo-2,3-dihydrofuranylpyrrolidine-3-carboxylic acid] | 36.2% |
| CCCCN(CCCC)C(=O)CN1CC(c2ccc3c(c2)OCO3)C(C(=O)O)C1C1CCC(OC)CC1 (stereo not drawn) [Example 160B, trans,trans-1-(N,N-Di(n-butyl)aminocarbonylmethyl)-2-(anti-4-methoxycyclohexyl)-4-(1,3-benzodioxol-5-yl)pyrrolidine-3-carboxylic acid] | 80.3% |
| CCCCN(CCCC)C(=O)CN1CC(c2ccc3c(c2)OCO3)C(C(=O)O)C1[C@H]1CC[C@H](OC)CC1 (stereo partly drawn) [Example 161, trans,trans-1-(N,N-Di(n-butyl)aminocarbonylmethyl)-2-(syn-4-methoxycyclohexyl)-4-(1,3-benzodioxol-5-yl)pyrrolidine-3-carboxylic acid] | 93.6% |
| CCCCN(CCCC)C(=O)CN1CC(c2ccc3c(c2)CCO3)C(C(=O)O)C1c1ccc2c(c1)CCO2 (stereo not drawn) [Example 162B, trans,trans-1-(N,N-Di(n-butyl)aminocarbonylmethyl)-2,4-di(5-benzo-2,3-dihydrofuranyl)pyrrolidine-3-carboxylic acid] | 91.5% |
| CCCCN(CCCC)C(=O)CN1CC(c2ccc3c(c2)CCO3)C(C(=O)O)C1c1ccoc1 (stereo not drawn) [Example 163, trans,trans-1-(N,N-Di(n-butyl)aminocarbonylmethyl)-2-(3-furyl)-4-(5-benzo-2,3-dihydrofuranyl)pyrrolidine-3-carboxylic acid] | 90.6% |
| CCCCN(CCCC)C(=O)CN1CC(c2cccc(F)c2)C(C(=O)O)C1c1ccc(OC)cc1 (stereo not drawn) [Example 164, trans,trans-1-(N,N-Di(n-butyl)aminocarbonylmethyl)-2-(4-methoxyphenyl)-4-(3-fluorophenyl)pyrrolidine-3-carboxylic acid] | 98.6% |
| CCCCN(CCCC)C(=O)CN1CC(c2cccnc2)C(C(=O)O)C1c1ccc(OC)cc1 (stereo not drawn) [Example 165, trans,trans-1-(N,N-Di(n-butyl)aminocarbonylmethyl)-2-(4-methoxyphenyl)-4-(3-pyridyl)pyrrolidine-3-carboxylic acid] | 54.1% |
| CCCCN(CCCC)C(=O)CN1CC(c2ccc3c(c2)OCO3)C(C(=O)O)C1c1ccccc1F (stereo not drawn) [Example 166, trans,trans-1-(N,N-Di(n-butyl)aminocarbonylmethyl)-2-(2-fluorophenyl)-4-(1,3-benzodioxol-5-yl)pyrrolidine-3-carboxylic acid] | 91.6% |
| CCCCN(CCCC)C(=O)CN1CC(c2ccc3c(c2)OCO3)C(C(=O)O)C1c1cccc(F)c1 (stereo not drawn) [Example 167, trans,trans-1-(N,N-Di(n-butyl)aminocarbonylmethyl)-2-(3-fluorophenyl)-4-(1,3-benzodioxol-5-yl)pyrrolidine-3-carboxylic acid] | 94.4% |
| COc1ccc(C2C(C(=O)O)C(c3ccc4c(c3)OCO4)CN2CC(=O)N2CCCC(C)(C)C2)cc1 (stereo not drawn) [Example 294, trans—trans-2-(4-Methoxyphenyl)-4-(1,3-benzodioxol-5-yl)-1-[3,3-dimethylpiperidinyl-carbonylmethyl]-pyrrolidine-3-carboxylic acid] | 77.7% |
| CCCN(CCN1CC(c2ccc3c(c2)OCO3)C(C(=O)O)C1c1ccc(OC)cc1)C(=O)OCC(C)C (stereo not drawn) [Example 295, trans—trans-2-(4-Methoxyphenyl)-4-(1,3-benzodioxol-5-yl)-1-[2-(N-propyl-N-iso-butoxycarbonylamino)ethyl]-pyrrolidine-3-carboxylic acid] | 93.0% |
| COc1ccc(C2C(C(=O)O)C(c3ccc4c(c3)OCO4)CN2CC(=O)N2CCc3ccccc3C2)cc1 (stereo not drawn) [Example 296, trans—trans-2-(4-Methoxyphenyl)-4-(1,3-benzodioxol-5-yl)-1-[1,2,3,4-tetrahydroisoquinolin-2-carbonylmethyl]-pyrrolidine-3-carboxylic acid] | 87.1% |
| CCCN(CCN1CC(c2ccc3c(c2)OCO3)C(C(=O)O)C1c1ccc(OC)cc1)C(=O)N(C)C (stereo not drawn) [Example 297, trans—trans-2-(4-Methoxyphenyl)-4-(1,3-benzodioxol-5-yl)-1-[2-(N-propyl-N-dimethylaminocarbonylamino)ethyl]-pyrrolidine-3-carboxylic acid] | 84.4% |
| CCCN(CCN1CC(c2ccc3c(c2)OCO3)C(C(=O)O)C1c1ccc(OC)cc1)S(=O)(=O)c1ccc([N+](=O)[O-])cc1 (stereo not drawn) [Example 298, trans,trans-2-(4-Methoxyphenyl)-4-(1,3-benzodioxol-5-yl)-1-(2-(N-propyl-N-(4-nitrobenzenesulfonyl)amino)ethyl)-pyrrolidine-3-carboxylic acid] | 93.3% |
| CCCCCS(=O)(=O)N(CCC)CCN1CC(c2ccc3c(c2)OCO3)C(C(=O)O)C1c1ccc(OC)cc1 (stereo not drawn) [Example 299, trans,trans-2-(4-Methoxyphenyl)-4-(1,3-benzodioxol-5-yl)-1-(2-(N-propyl-N-n-pentanesulfonylamino)ethyl)-pyrrolidine-3-carboxylic acid] | 90.4% |
| C=C(C)CS(=O)(=O)N(CCC)CCN1CC(c2ccc3c(c2)OCO3)C(C(=O)O)C1c1ccc(OC)cc1 (stereo not drawn) [Example 301, trans,trans-2-(4-Methoxyphenyl)-4-(1,3-benzodioxol-5-yl)-1-(2-(N-propyl-N-(2-methyl-2-propenesulfonyl)amino)ethyl)-pyrrolidine-3-carboxylic acid] | 96.7% |
| CCC1CCCCN1C(=O)CN1CC(c2ccc3c(c2)OCO3)C(C(=O)O)C1c1ccc(OC)cc1 (stereo not drawn) [Example 302, trans—trans-2-(4-Methoxyphenyl)-4-(1,3-benzodioxol-5-yl)-1-[2-ethylpiperidinyl-carbonylmethyl]-pyrrolidine-3-carboxylic acid] | 86.6% |
| CCCCCCCS(=O)(=O)N(CCC)CCN1CC(c2ccc3c(c2)OCO3)C(C(=O)O)C1c1ccc(OC)cc1 (stereo not drawn) [Example 304, trans,trans-2-(4-Methoxyphenyl)-4-(1,3-benzodioxol-5-yl)-1-(2-(N-propyl-N-heptanesulfonylamino)ethyl)-pyrrolidine-3-carboxylic acid] | 89.7% |
| CCOC(=O)N(CC)CCN1CC(c2ccc3c(c2)OCO3)C(C(=O)O)C1c1ccc(OC)cc1 (stereo not drawn) [Example 305, trans—trans-2-(4-Methoxyphenyl)-4-(1,3-benzodioxol-5-yl)-1-[2-(N-ethyl-N-ethoxycarbonylamino)ethyl]-pyrrolidine-3-carboxylic acid] | 87.4% |
| CCCCCCS(=O)(=O)N(CCC)CCN1CC(c2ccc3c(c2)OCO3)C(C(=O)O)C1c1ccc(OC)cc1 (stereo not drawn) [Example 306, trans,trans-2-(4-Methoxyphenyl)-4-(1,3-benzodioxol-5-yl)-1-(2-(N-propyl-N-hexanesulfonylamino)ethyl)-pyrrolidine-3-carboxylic acid] | 93.3% |
| CCCCN(CCCC)C(=O)CN1CC(c2ccc3c(c2)OCO3)C(C(=O)O)C1c1ccc(CC)cc1 (stereo not drawn) [Example 307, trans—trans-2-(4-Ethylphenyl)-4-(1,3-benzodioxol-5-yl)-1-[N,N-di(n-butyl)aminocarbonylmethyl]-pyrrolidine-3-carboxylic acid] | 92.2% |
| CCCCN(CCCC)C(=O)CN1CC(c2ccc3c(c2)OCO3)C(C(=O)O)C1CCOC (stereo not drawn) [Example 309, trans—trans-2-(2-Methoxyethyl)-4-(1,3-benzodioxol-5-yl)-1-[N,N-di(n-butyl)aminocarbonylmethyl]-pyrrolidine-3-carboxylic acid] | 80.7% |
| CCCCCS(=O)(=O)N(CC)CCN1CC(c2ccc3c(c2)OCO3)C(C(=O)O)C1c1ccc(OC)cc1 (stereo not drawn) [Example 310, trans,trans-2-(4-Methoxyphenyl)-4-(1,3-benzodioxol-5-yl)-1-(2-(N-ethyl-N-n-pentanesulfonylamino)ethyl)-pyrrolidine-3-carboxylic acid] | 87.1% |
| COc1ccc(C2C(C(=O)O)C(c3ccc4c(c3)OCO4)CN2CC(=O)N(C2CCCCC2)C2CCCCC2)cc1 (stereo not drawn) [Example 311, trans—trans-2-(4-Methoxyphenyl)-4-(1,3-benzodioxol-5-yl)-1-[N,N-dicyclohexylaminocarbonylmethyl]-pyrrolidine-3-carboxylic acid] | 92.3% |
| CCCN(CCN1CC(c2ccc3c(c2)OCO3)C(C(=O)O)C1c1ccc(OC)cc1)C(=O)OC(C)(C)C (stereo not drawn) [Example 312, trans—trans-2-(4-Methoxyphenyl)-4-(1,3-benzodioxol-5-yl)-1-[2-(N-propyl-N-tert-butoxycarbonylamino)ethyl]-pyrrolidine-3-carboxylic acid] | 88.2% |
| CCCCN(CCCC)C(=O)CN1CC(c2ccc3c(c2)OCO3)C(C(=O)O)C1c1ccc(OC)c(F)c1 (stereo not drawn) [Example 313, trans—trans-2-(4-Methoxy-3-fluorophenyl)-4-(1,3-benzodioxol-5-yl)-1-[N,N-di(n-butyl)aminocarbonylmethyl]-pyrrolidine-3-carboxylic acid] | 96.3% |
| CCCCCS(=O)(=O)N(CCC)CCN1CC(c2ccc3c(c2)OCO3)C(C(=O)O)C1CCC (stereo not drawn) [Example 314, trans,trans-2-(Propyl)-4-(1,3-benzodioxol-5-yl)-1-(2-(N-propyl-pentanesulfonylamino)ethyl)pyrrolidine-3-carboxylic acid] | 86.0% |
